Data reported in patent US20200163943A1, “METHODS FOR TREATING DRAVET SYNDROME” (Cavion, Inc., priority 2017, published 2020).

Columns and labels:
Pharmacokinetics in rat = type: in vivo
WAG/Rij = WAG/Rij in vivo model; settings: 10 mpk, @4 hr
hERG = hERG (Homo sapiens, UniProt Q12809); assay: hERG counter-screen; type: biochemical
Panlabs = Panlabs selectivity panel
[1] = Pharmacokinetics in monkey; type: in vivo
Pharmacokinetics in dog = type: in vivo
N-Type = N-Type (Homo sapiens, UniProt Q00975); assay: N-Type calcium channel counter-screen; type: biochemical
L-Type = L-Type calcium channel counter-screen; type: biochemical
Na Channel = Na Channel counter-screen; type: biochemical
α1I [2] = target: T1, α1I (Homo sapiens, UniProt Q9P0X4); assay: α1I VC (voltage clamp) at set holding potentials; type: cell-based
Papp permeability = type: in vitro ADME; settings: not told
α1I [3] = target: T1, α1I; assay: α1I potency; type: cell-based
α1I + Kir = α1I + Kir (Homo sapiens, UniProt Q9P0X4); assay: α1I + Kir potency; type: cell-based
PGP = PGP (Homo sapiens, UniProt P08183); assay: PGP substrate assay; type: in vitro ADME
[4] = plasma, 10 mg/kg, PO (1% methylcellulose), 10 mpk
[5] = plasma, 3 mg/kg, PO (1% methylcellulose), 3 mpk
[6] = plasma, 1 mg/kg, PO (1% methylcellulose), 1 mpk

T1 sequence (Q9P0X4 whole entry): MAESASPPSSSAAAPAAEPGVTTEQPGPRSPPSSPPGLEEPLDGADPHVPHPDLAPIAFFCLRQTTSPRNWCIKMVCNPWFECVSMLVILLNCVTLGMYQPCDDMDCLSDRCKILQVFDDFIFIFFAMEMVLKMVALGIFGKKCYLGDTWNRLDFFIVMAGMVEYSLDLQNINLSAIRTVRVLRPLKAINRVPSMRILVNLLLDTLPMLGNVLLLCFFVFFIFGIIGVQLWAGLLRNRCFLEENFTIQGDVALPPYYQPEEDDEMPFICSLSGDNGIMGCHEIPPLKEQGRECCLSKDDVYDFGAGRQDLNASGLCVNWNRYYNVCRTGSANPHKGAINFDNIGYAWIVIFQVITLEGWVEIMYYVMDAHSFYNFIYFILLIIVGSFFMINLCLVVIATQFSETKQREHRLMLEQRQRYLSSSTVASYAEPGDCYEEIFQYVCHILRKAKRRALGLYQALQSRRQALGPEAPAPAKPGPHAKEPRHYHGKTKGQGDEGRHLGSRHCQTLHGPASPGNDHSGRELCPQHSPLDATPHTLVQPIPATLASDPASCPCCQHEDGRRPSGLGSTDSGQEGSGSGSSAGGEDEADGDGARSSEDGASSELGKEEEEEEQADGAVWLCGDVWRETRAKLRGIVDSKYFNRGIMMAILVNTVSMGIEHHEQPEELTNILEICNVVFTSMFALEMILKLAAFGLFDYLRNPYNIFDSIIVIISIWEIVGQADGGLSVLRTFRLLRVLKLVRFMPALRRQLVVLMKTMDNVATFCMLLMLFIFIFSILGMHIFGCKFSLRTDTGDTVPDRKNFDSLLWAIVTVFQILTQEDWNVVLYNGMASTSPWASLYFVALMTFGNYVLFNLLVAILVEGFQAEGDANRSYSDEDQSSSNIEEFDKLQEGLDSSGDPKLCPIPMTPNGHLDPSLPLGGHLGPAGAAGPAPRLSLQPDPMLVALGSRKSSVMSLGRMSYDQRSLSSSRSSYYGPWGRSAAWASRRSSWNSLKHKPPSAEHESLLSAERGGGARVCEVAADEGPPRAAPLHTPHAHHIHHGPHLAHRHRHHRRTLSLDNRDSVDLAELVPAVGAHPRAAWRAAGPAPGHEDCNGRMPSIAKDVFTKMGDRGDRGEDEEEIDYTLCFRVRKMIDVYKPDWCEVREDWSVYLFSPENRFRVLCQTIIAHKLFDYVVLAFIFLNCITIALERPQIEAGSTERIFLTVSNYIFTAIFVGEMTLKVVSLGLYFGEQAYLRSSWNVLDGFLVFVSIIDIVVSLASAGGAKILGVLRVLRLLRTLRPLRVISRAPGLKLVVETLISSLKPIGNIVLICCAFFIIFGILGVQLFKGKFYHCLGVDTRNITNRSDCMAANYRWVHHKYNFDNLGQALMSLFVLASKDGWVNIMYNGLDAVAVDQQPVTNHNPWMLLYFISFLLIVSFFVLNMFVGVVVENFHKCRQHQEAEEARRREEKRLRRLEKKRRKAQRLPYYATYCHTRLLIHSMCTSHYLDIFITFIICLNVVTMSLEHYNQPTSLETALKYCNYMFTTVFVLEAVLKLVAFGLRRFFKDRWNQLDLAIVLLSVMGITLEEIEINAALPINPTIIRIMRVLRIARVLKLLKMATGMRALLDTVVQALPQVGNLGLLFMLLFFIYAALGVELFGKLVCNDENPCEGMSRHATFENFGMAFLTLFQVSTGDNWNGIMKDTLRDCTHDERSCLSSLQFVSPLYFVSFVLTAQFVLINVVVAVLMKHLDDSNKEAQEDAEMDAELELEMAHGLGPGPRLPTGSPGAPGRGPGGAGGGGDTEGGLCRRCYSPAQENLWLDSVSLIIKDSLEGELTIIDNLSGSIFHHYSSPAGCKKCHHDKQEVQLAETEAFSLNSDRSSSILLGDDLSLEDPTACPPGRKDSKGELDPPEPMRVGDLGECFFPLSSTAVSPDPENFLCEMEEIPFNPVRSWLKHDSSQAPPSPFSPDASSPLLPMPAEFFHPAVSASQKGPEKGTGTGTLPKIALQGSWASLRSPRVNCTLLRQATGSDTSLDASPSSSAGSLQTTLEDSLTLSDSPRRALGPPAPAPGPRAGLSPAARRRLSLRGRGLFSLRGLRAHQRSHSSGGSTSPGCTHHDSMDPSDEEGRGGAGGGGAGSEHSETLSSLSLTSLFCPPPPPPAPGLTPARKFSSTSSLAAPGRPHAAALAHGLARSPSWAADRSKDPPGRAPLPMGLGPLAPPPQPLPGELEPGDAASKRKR
Sequence of hERG (Q12809 whole entry): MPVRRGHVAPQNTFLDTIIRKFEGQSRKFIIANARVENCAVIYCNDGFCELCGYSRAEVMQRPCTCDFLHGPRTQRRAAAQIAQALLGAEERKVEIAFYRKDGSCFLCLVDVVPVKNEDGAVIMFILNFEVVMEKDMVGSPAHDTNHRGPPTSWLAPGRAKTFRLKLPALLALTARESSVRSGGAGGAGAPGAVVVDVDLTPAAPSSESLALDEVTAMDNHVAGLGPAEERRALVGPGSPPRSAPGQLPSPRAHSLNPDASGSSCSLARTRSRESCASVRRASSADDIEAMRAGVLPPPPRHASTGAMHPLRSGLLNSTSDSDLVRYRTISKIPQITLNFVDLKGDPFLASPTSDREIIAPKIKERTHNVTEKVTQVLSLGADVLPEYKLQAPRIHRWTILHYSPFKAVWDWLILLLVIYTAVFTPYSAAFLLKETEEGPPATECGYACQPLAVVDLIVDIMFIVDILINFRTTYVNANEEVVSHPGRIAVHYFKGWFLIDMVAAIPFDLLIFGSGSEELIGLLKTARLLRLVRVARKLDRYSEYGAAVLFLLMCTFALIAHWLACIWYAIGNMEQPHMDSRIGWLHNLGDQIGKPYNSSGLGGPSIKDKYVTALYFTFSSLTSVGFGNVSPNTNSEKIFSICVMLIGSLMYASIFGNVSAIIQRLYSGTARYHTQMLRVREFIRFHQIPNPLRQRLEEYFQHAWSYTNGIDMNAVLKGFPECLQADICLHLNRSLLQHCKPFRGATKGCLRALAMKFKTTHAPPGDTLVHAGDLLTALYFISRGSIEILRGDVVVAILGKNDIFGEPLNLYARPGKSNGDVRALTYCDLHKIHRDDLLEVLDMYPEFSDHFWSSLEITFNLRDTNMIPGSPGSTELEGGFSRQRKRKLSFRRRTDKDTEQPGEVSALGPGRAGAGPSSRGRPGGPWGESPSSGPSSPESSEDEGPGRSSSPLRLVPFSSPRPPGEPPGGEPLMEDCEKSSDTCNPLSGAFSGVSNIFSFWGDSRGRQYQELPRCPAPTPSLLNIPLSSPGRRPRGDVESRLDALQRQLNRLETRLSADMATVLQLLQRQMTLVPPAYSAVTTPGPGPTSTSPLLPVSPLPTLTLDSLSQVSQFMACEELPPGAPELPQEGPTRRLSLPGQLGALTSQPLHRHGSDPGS
Sequence of PGP (P08183 whole entry): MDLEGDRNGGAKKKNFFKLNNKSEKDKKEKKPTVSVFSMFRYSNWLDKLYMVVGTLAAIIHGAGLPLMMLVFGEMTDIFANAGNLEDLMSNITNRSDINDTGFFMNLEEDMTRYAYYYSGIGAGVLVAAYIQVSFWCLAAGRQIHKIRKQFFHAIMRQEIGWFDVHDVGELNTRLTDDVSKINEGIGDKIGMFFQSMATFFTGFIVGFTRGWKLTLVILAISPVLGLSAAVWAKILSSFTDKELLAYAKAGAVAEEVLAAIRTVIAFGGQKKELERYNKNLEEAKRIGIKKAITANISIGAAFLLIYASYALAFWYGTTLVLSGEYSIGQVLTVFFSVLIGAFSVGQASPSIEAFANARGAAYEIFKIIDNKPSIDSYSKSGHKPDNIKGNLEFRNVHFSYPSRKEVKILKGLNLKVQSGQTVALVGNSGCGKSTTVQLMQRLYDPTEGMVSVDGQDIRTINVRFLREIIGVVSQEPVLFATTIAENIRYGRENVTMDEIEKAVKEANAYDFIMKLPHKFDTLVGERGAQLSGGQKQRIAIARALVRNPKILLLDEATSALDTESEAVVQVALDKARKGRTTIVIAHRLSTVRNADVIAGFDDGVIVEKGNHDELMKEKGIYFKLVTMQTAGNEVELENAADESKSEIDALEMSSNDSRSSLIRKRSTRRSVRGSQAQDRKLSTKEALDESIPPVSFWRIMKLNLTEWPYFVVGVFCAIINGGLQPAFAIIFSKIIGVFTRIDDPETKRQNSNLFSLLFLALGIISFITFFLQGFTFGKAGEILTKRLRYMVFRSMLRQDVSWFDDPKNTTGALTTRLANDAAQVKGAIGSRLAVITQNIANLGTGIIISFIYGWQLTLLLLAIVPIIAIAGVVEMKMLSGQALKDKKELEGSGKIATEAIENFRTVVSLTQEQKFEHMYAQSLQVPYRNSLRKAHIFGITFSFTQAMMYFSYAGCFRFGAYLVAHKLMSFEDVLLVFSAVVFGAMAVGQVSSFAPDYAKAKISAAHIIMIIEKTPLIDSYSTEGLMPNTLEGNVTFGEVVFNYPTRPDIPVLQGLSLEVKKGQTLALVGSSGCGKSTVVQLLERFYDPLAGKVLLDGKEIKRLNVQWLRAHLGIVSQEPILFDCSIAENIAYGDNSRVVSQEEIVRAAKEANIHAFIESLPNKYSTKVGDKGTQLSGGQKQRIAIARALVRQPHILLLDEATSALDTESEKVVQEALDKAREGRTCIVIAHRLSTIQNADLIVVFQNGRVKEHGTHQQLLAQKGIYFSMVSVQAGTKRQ
Sequence of α1I + Kir (Q9P0X4 whole entry): as the sequence (Q9P0X4 whole entry) above

Clp (Pharmacokinetics in rat; IV (DMSO)): 0.36 L/h/kg | F (Pharmacokinetics in rat; PO (1% methylcellulose), 10 mpk): 68% | AUC (Pharmacokinetics in rat; [4]): 46 µM·h | Cmax (Pharmacokinetics in rat; [4]): 7.6 µM | half-life (Pharmacokinetics in rat; plasma, IV (DMSO)): 1.6 h | Clp ([1]; IV (DMSO)): 1.02 L/h/kg | T1/2 ([1]; IV (DMSO)): 0.9 h | F ([1]; PO (1% methylcellulose), 3 mpk): 7% | AUC [1, 5]: 0.6 µM·h | Cmax [1, 5]: 0.3 µM | Clp (Pharmacokinetics in dog; IV (DMSO)): 0.054 L/h/kg | T1/2 (Pharmacokinetics in dog; IV (DMSO)): 11 h | F (Pharmacokinetics in dog; PO (1% methylcellulose), 1 mpk): 43% | AUC (Pharmacokinetics in dog; [6]): 23 µM·h | Cmax (Pharmacokinetics in dog; [6]): 2.1 µM | IC50 (N-Type): > 10 µM | IC50 (α1I [2]; −80 mV, read-out: a1I VC (−80 mV)): 0.098 µM | IC50 (α1I [2]; −100 mV, read-out: α1I VC (−100 mV)): 4.2 µM | Papp (Papp permeability): 4900 nm/s | IC50 (α1I [3]): 0.009 µM | IC50 (α1I + Kir): 0.296 µM | PGP (PGP): 0.7
SMILES: C[C@@H](NC(=O)Cc1ccc(C2CC2)cc1)c1ccc(OCC(F)(F)F)cn1 [TTA-A2]
WAG/Rij inhibition (WAG/Rij): 87% inhibition@4 hr | IC50 (hERG): > 10 µM | Panlabs hits >50% @10 uM (Panlabs): 0 hits >50% @10 uM | IC50 (L-Type): > 10 µM | IC50 (Na Channel): > 10 µM
